TGI data for 17 compounds are collected here from PubChem BioAssay (NCI).

Molecules are shown by their SMILES.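 How tested: cells in 96-well plates exposed to compound for 48 hours at five concentrations. The concentration for full growth arrest is given as TGI.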

Among the test systems are DLD-1 colon; DMS 114 small cell lung; DMS 273 small cell lung; HOP-18 NSCLC; KM20L2 colon; LXFL 529 NSCLC; M19-MEL melanoma; SNB-78 CNS; RXF-631 renal; XF 498 CNS.
Common to all, as to test: NCI-60 cell line screen, 48 h

In the case of `COC(=O)c1c/c(=N\NC(=O)CC(=O)Nc2ccccc2OC)c2ccccc2o1`, the TGI in the test on DLD-1 colon, in the test on DMS 114 small cell lung, in the test with DMS 273 small cell lung, in the test on HOP-18 NSCLC, in the test with KM20L2 colon and in the test with LXFL 529 NSCLC was greater than 100 µM throughout. The TGI in the test with M19-MEL melanoma and in the test on SNB-78 CNS was greater than 100 µM in each case.

Turning to `C/C(CC(=O)Nc1cc(Cl)c(Cl)cc1Cl)=N\NC(N)=O`, the TGI with DLD-1 colon, in the test with DMS 114 small cell lung, in the test with DMS 273 small cell lung, with KM20L2 colon, in the test with LXFL 529 NSCLC and with M19-MEL melanoma was greater than 100 µM throughout. Further, the TGI in the test with RXF-631 renal and in the test with XF 498 CNS was greater than 100 µM throughout.

Regarding `C/C(CC(=O)Nc1ccc(C)cc1C)=N/N=C(N)N`, the TGI in the test with DLD-1 colon, in the test with DMS 114 small cell lung, in the test with DMS 273 small cell lung, in the test on KM20L2 colon, in the test on LXFL 529 NSCLC and in the test on M19-MEL melanoma was greater than 100 µM each time. Moreover, the TGI in the test on RXF-631 renal, in the test on SNB-78 CNS and in the test on XF 498 CNS was greater than 100 µM throughout.

As to `CSC(C1c2ccccc2N(c2ccc(C)cc2)C2=NC(=O)N(C)C(=O)C21Cl)S(=O)(=O)c1ccc(C)cc1` (stereo not given), the TGI in the test with DLD-1 colon was found to be 33.5 µM; in the test on DMS 114 small cell lung, 49.8 µM; in the test with DMS 273 small cell lung, 47.9 µM; in the test on KM20L2 colon, 48.4 µM; with LXFL 529 NSCLC, 42.1 µM; in the test with M19-MEL melanoma, 69.2 µM. Also, the TGI in the test with SNB-78 CNS stood at 80.1 µM; in the test on XF 498 CNS it was 65.2 µM.

`CC(C)(C)C1C=C(Sc2ccccc2)C(=O)O1` (stereo not given): the TGI in the test with DLD-1 colon, in the test on DMS 114 small cell lung, in the test on DMS 273 small cell lung, with HOP-18 NSCLC, in the test with KM20L2 colon and with LXFL 529 NSCLC was greater than 100 µM each time. The TGI in the test on M19-MEL melanoma and in the test with SNB-78 CNS was greater than 100 µM each time.

Regarding `N#Cc1cc([N+](=O)[O-])ccc1NC(=O)C(=O)Nc1n[nH]c(N)n1`, the TGI with DLD-1 colon, in the test on DMS 114 small cell lung, in the test with DMS 273 small cell lung, in the test on KM20L2 colon, with LXFL 529 NSCLC and in the test with M19-MEL melanoma was greater than 100 µM in each case. In addition, the TGI with RXF-631 renal, in the test on SNB-78 CNS and in the test with XF 498 CNS was greater than 100 µM throughout.

Turning to `CC(C)C(=O)NC(=S)Nc1ccc([N+](=O)[O-])cc1C#N`, the TGI with DLD-1 colon, in the test on DMS 114 small cell lung, with DMS 273 small cell lung, in the test with HOP-18 NSCLC, in the test with KM20L2 colon and in the test on LXFL 529 NSCLC was greater than 100 µM each time. Further, the TGI in the test on M19-MEL melanoma, in the test with RXF-631 renal, with SNB-78 CNS and in the test with XF 498 CNS was greater than 100 µM each time.

For the compound `CCOC(=O)C1=C(OC(OCC)C(CC)[Se]c2ccccc2)CCCC1` (stereo not given), the TGI with DLD-1 colon worked out at 35.5 µM; with DMS 273 small cell lung, 29.2 µM; with HOP-18 NSCLC it was 86.4 µM; in the test with KM20L2 colon, 37.3 µM; in the test with LXFL 529 NSCLC, 91.8 µM; in the test on M19-MEL melanoma, 33 µM. Further, the TGI in the test with RXF-631 renal is 27.9 µM; in the test with SNB-78 CNS, greater than 100 µM; in the test with XF 498 CNS it was 46.5 µM.

Regarding `COC(=O)/C=C/c1cc(OC)c(OC)c(OC)c1`, the TGI with DLD-1 colon, in the test on DMS 114 small cell lung, with DMS 273 small cell lung, with HOP-18 NSCLC, with KM20L2 colon and with LXFL 529 NSCLC was greater than 100 µM each time. The TGI with M19-MEL melanoma, with RXF-631 renal and in the test on XF 498 CNS was greater than 100 µM each time.

As to `CCCCN=C(NC#N)NCCCC`, the TGI in the test with DLD-1 colon, in the test with DMS 114 small cell lung, with DMS 273 small cell lung, in the test on HOP-18 NSCLC, with KM20L2 colon and with LXFL 529 NSCLC was greater than 100 µM in each case. The TGI in the test on M19-MEL melanoma, with RXF-631 renal, in the test with SNB-78 CNS and in the test with XF 498 CNS was greater than 100 µM in each case.

For the compound `O=C(O)C(CO)NC(=O)n1c2ccccc2c2ccccc21` (stereo not given), the TGI in the test with DLD-1 colon, in the test with DMS 114 small cell lung, with DMS 273 small cell lung, in the test with HOP-18 NSCLC, with LXFL 529 NSCLC and with M19-MEL melanoma was greater than 100 µM throughout. Also, the TGI in the test with XF 498 CNS is greater than 100 µM.

For `CC(C)(C)C1CCC2(CC1)c1[nH]c3ccccc3c1C1(CCC(C(C)(C)C)CC1)c1[nH]c3ccccc3c12` (stereo not given), the TGI in the test on DLD-1 colon is greater than 100 µM; in the test with DMS 114 small cell lung it was 57.3 µM; in the test with DMS 273 small cell lung, greater than 100 µM; with HOP-18 NSCLC, greater than 100 µM; in the test with KM20L2 colon, greater than 100 µM; in the test on LXFL 529 NSCLC, greater than 100 µM. Further, the TGI with M19-MEL melanoma, in the test with SNB-78 CNS and in the test on XF 498 CNS was greater than 100 µM in each case.

With `C=CCOCCCCC(C(C)=O)C(=O)OC` (stereo not given), the TGI in the test on DLD-1 colon, with HOP-18 NSCLC, in the test on KM20L2 colon, in the test on LXFL 529 NSCLC, with M19-MEL melanoma and in the test with SNB-78 CNS was greater than 100 µM throughout. Further, the TGI in the test with XF 498 CNS was greater than 100 µM.

As to `O=C1NC2OC(CO)C(O)C(O1)C2O` (stereo not given), the TGI with DLD-1 colon, in the test on DMS 114 small cell lung, in the test with DMS 273 small cell lung, in the test with HOP-18 NSCLC, with KM20L2 colon and in the test with LXFL 529 NSCLC was greater than 100 µM in each case. Besides, the TGI with M19-MEL melanoma, in the test with SNB-78 CNS and in the test with XF 498 CNS was greater than 100 µM each time.

Turning to `COC1(OC)CCCCC2c3cccc(OC(C)=O)c3C21OC(C)=O` (stereo not given), the TGI in the test with DLD-1 colon, in the test with DMS 114 small cell lung, with DMS 273 small cell lung, in the test on HOP-18 NSCLC, in the test with LXFL 529 NSCLC and in the test on M19-MEL melanoma was greater than 100 µM in each case. Further, the TGI in the test with SNB-78 CNS and in the test on XF 498 CNS was greater than 100 µM throughout.

Regarding `O=C(O)C(CS)N=c1c2ccccc2n(O)c2ccccc12` (stereo not given), the TGI in the test on DLD-1 colon, in the test on DMS 114 small cell lung, in the test on DMS 273 small cell lung, in the test on HOP-18 NSCLC, in the test on KM20L2 colon and in the test on LXFL 529 NSCLC was greater than 100 µM in each case. Moreover, the TGI in the test on M19-MEL melanoma, with RXF-631 renal and with SNB-78 CNS was greater than 100 µM each time.

As to `COC(=O)C1CC2(c3ccccc3)C(=O)c3ccccc3N2O1` (stereo not given), the TGI in the test on DLD-1 colon, with DMS 114 small cell lung, in the test with DMS 273 small cell lung, in the test with HOP-18 NSCLC, with KM20L2 colon and in the test on LXFL 529 NSCLC was greater than 100 µM each time. Besides, the TGI with M19-MEL melanoma and with SNB-78 CNS was greater than 100 µM in each case.
